From ChEMBL document CHEMBL1938310, “Discovery of novel antitubercular 1,5-dimethyl-2-phenyl-4-([5-(arylamino)-1,3,4-oxadiazol-2-yl]methylamino)-1,2-dihydro-3H-pyrazol-3-one analogues” (Bioorg Med Chem Lett, 2012)
≈ marks a conversion by molar mass, not a printed value.

Legend:
[1] = system: Mycobacterium tuberculosis; assay: Antimycobacterial activity against Mycobacterium tuberculosis H37Rv by two fold agar dilution method; format: functional
[2] = system: Vero; assay: Cytotoxicity against African green monkey Vero cells at 62.5 ug/ml after 72 hrs by MTT assay; format: cell-based; details: chlorocebus sabaeus

Structure (SMILES)	MIC [1] [µg/mL]	Activity [2]
Cc1cccc(C)c1Nc1nnc(CNc2c(C)n(C)n(-c3ccccc3)c2=O)o1	10 (≈ 24.7 µM)	
Cc1c(Cl)cccc1Nc1nnc(CNc2c(C)n(C)n(-c3ccccc3)c2=O)o1	10 (≈ 23.5 µM)	
COc1ccc(Nc2nnc(CNc3c(C)n(C)n(-c4ccccc4)c3=O)o2)c(OC)c1	> 12.5	
Cc1c(NCc2nnc(Nc3ccccc3)o2)c(=O)n(-c2ccccc2)n1C	10 (≈ 26.6 µM)	
Cc1c(NCc2nnc(Nc3ccc(F)c(Cl)c3)o2)c(=O)n(-c2ccccc2)n1C	6.25 (≈ 14.6 µM)	Non-toxic
Cc1c(NCc2nnc(Nc3ccc(F)cc3)o2)c(=O)n(-c2ccccc2)n1C	0.78 (≈ 1.98 µM)	Non-toxic
Cc1c(NCc2nnc(Nc3ccc(O)cc3)o2)c(=O)n(-c2ccccc2)n1C	10 (≈ 25.5 µM)	
Cc1c(NCc2nnc(Nc3ccc(Br)cc3)o2)c(=O)n(-c2ccccc2)n1C	6.25 (≈ 13.7 µM)	Non-toxic
Cc1ccc(Nc2nnc(CNc3c(C)n(C)n(-c4ccccc4)c3=O)o2)cc1	12.5 (≈ 32 µM)	
Cc1c(NCc2nnc(Nc3ccc(S(N)(=O)=O)cc3)o2)c(=O)n(-c2ccccc2)n1C	3.12 (≈ 6.85 µM)	Non-toxic
Cc1c(NCc2nnc(Nc3ccc([N+](=O)[O-])cc3)o2)c(=O)n(-c2ccccc2)n1C	3.12 (≈ 7.4 µM)	Non-toxic
CCOc1ccc(Nc2nnc(CNc3c(C)n(C)n(-c4ccccc4)c3=O)o2)cc1	> 12.5	
Cc1ccc(Nc2nnc(CNc3c(C)n(C)n(-c4ccccc4)c3=O)o2)c(C)c1	12.5 (≈ 30.9 µM)	
NNC(=O)c1ccncc1 [ISONIAZID]	0.78 (≈ 5.69 µM)	
COc1ccc(Nc2nnc(CNc3c(C)n(C)n(-c4ccccc4)c3=O)o2)cc1	12.5 (≈ 30.8 µM)	
Cc1c(NCc2nnc(Nc3ccc(Cl)cc3)o2)c(=O)n(-c2ccccc2)n1C	6.25 (≈ 15.2 µM)	Non-toxic
Cc1c(NCc2nnc(Nc3ccccc3Cl)o2)c(=O)n(-c2ccccc2)n1C	10 (≈ 24.3 µM)	
